Measurements from PubChem BioAssay (NCI).
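Where inhibition never reached the appropriate level, the endpoint shown equals the highest concentration tested. Otherwise, values were interpolated linearly from a five-concentration, 48-hour dose response in 96-well plates. GI50: concentration for 50% inhibition of growth. TGI is the concentration that stops growth completely.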

Tests used:
Experiment in all cases: NCI tumour cell line growth inhibition, 48 h
[1] = test system: MDA-MB-435
[2] = test system: K-562 leukemia
[3] = test system: MALME-3M melanoma
[4] = test system: HCC-2998 colon
[5] = test system: SK-OV-3 ovarian
[6] = test system: KM12 colon
[7] = test system: TK-10 renal
[8] = test system: IGROV1 ovarian
[9] = test system: SF-295 CNS
[10] = test system: SF-539 CNS
[11] = test system: OVCAR-5 ovarian
[12] = test system: SK-MEL-5 melanoma
[13] = test system: COLO 205 colon
[14] = test system: CAKI-1 renal
[15] = test system: NCI-H226 lung
[16] = test system: EKVX NSCLC
[17] = test system: UO-31 renal
[18] = test system: A498 renal
[19] = test system: RXF 393 renal
[20] = test system: SK-MEL-2 melanoma
[21] = test system: DU-145 prostate
[22] = test system: NCI/ADR-RES ovarian
[23] = test system: SK-MEL-28 melanoma
[24] = test system: HT29 colon
[25] = test system: HS 578T breast
[26] = test system: NCI-H522 lung
[27] = test system: UACC-257 melanoma
[28] = test system: MOLT-4 leukemia
[29] = test system: SR leukemia
[30] = test system: PC-3 prostate
[31] = test system: UACC-62 melanoma
[32] = test system: BT-549 breast
[33] = test system: SW-620 colon
[34] = test system: NCI-H23 lung
[35] = test system: ACHN renal
[36] = test system: HOP-92 NSCLC
[37] = test system: OVCAR-3 ovarian
[38] = test system: SN12C renal
[39] = test system: HL-60(TB) leukemia
[40] = test system: MDA-MB-231 breast
[41] = test system: 786-0 renal
[42] = test system: M14 melanoma
[43] = test system: OVCAR-8 ovarian
[44] = test system: CCRF-CEM leukemia
[45] = test system: SF-268 CNS
[46] = test system: NCI-H460 lung
[47] = test system: RPMI-8226 leukemia
[48] = test system: MCF7 breast
[49] = test system: HCT-15 colon
[50] = test system: A549 NSCLC

COc1cc(Cn2c3c(c4c(C(=O)NCCN(C)C)c(O)ccc42)C(=O)c2ccccc2C3=O)cc(OC)c1
TGI [1]: 3.4 µM
TGI [2]: > 100 µM
TGI [3]: 3.05 µM
TGI [4]: 2.35 µM
TGI [5]: 3.88 µM
TGI [6]: 3.2 µM
TGI [7]: 3.14 µM
TGI [8]: 3.22 µM
TGI [9]: 3.45 µM
TGI [10]: 3.4 µM
TGI [11]: 3.2 µM
TGI [12]: 3.27 µM
TGI [13]: 3.34 µM
TGI [14]: 3.26 µM
TGI [15]: 48.3 µM
TGI [16]: 3.32 µM
TGI [17]: 3.23 µM
TGI [18]: 3.45 µM
TGI [19]: 5.02 µM
TGI [20]: 3.36 µM
TGI [21]: 3.2 µM
TGI [22]: 5.21 µM
TGI [23]: 3.43 µM
TGI [24]: 3.45 µM
TGI [25]: 4.55 µM
TGI [26]: 3.21 µM
TGI [27]: 3.97 µM

CCOP(=O)(OCC)C(NC(c1ccccc1)c1ccccc1)c1cccc2ccccc12 (stereo not drawn)
GI50 [1]: 9.18 µM
TGI [1]: 28.3 µM
GI50 [28]: 4.17 µM
TGI [28]: > 100 µM
GI50 [29]: 4.91 µM
TGI [29]: > 100 µM
GI50 [2]: 3.99 µM
TGI [2]: 21 µM
GI50 [30]: 3.37 µM
TGI [30]: 13.9 µM
GI50 [31]: 2.58 µM
TGI [31]: 9.1 µM
GI50 [4]: 4.55 µM
TGI [4]: 17.2 µM
GI50 [32]: 23.8 µM
TGI [32]: 53.5 µM
GI50 [6]: 5.32 µM
TGI [6]: 23 µM
GI50 [7]: 10.3 µM
TGI [7]: 29.4 µM
GI50 [8]: 23.6 µM
TGI [8]: > 100 µM
GI50 [33]: 22.2 µM
TGI [33]: 57.6 µM
GI50 [9]: 6.76 µM
TGI [9]: 65.7 µM
GI50 [10]: 23 µM
TGI [10]: 41.4 µM
GI50 [34]: 13.3 µM
TGI [34]: 29.5 µM
GI50 [35]: 4.1 µM
TGI [35]: 12.3 µM
GI50 [36]: 11.7 µM
TGI [36]: 28.4 µM
GI50 [11]: 14.3 µM
TGI [11]: 34.4 µM
GI50 [12]: 14.9 µM
TGI [12]: 32.2 µM
GI50 [37]: 4.22 µM
TGI [37]: 12.5 µM
GI50 [38]: 2.68 µM
TGI [38]: 8.65 µM
GI50 [39]: 14.1 µM
TGI [39]: > 100 µM
GI50 [40]: 1.56 µM
TGI [40]: 9.63 µM
GI50 [41]: 2.9 µM
TGI [41]: 9.64 µM
GI50 [14]: 4.09 µM
TGI [14]: 14.5 µM
GI50 [42]: 3.03 µM
TGI [42]: 7.71 µM
GI50 [15]: 4.63 µM
TGI [15]: 19 µM
GI50 [16]: 16.2 µM
TGI [16]: 35.5 µM
GI50 [17]: 12.3 µM
TGI [17]: > 100 µM
GI50 [43]: 6.14 µM
TGI [43]: > 100 µM
GI50 [20]: 27.7 µM
TGI [20]: > 100 µM
GI50 [21]: 20.4 µM
TGI [21]: 39 µM
GI50 [22]: 9.79 µM
TGI [22]: 22.6 µM
GI50 [44]: 5.86 µM
TGI [44]: > 100 µM
GI50 [45]: 5.75 µM
TGI [45]: 21.2 µM
GI50 [46]: 5.05 µM
TGI [46]: 25.8 µM
GI50 [47]: 2.38 µM
TGI [47]: 5.57 µM
GI50 [48]: 4.04 µM
TGI [48]: 24.3 µM
GI50 [25]: 29.9 µM
TGI [25]: 67.3 µM
GI50 [26]: 7.96 µM
TGI [26]: > 100 µM
GI50 [27]: 3.22 µM
TGI [27]: 13.9 µM
GI50 [49]: 1.51 µM
TGI [49]: 8.78 µM
GI50 [50]: 4.28 µM
TGI [50]: > 100 µM
